One data set has as its system ICR male mice. The experiment in a line: Passive avoidance test (learning and memory). The conditions noted are these: for Latent time (retention latency to cross into the dark compartment): intraperitoneally 46 μmol/kg 60 min before the training trial, retention test 24 hours later, cut-off 300 s, mean±S.E.M, n≧10. In kind it is in vivo. As for the experimental part: Passive avoidance test was performed in a shuttle-box apparatus (Ugo Basile, Italy) with two communicating compartments of equal size (20×10×16 cm) and a stainless steel grid floor (bars spaced 0.7 cm apart). The right-hand compartment (shock compartment) was painted black to obtain a dark chamber. The left-hand compartment was painted white and illuminated by a bulb (100 W) installed on the top of plexiglass cover. These compartments were separated by a guillotine door (5×4 cm). On day 1 (training trial), mice were placed in the illuminated compartment and the door between the two compartments was opened 60 s later. When mice entered the dark compartment with all four feet, the door automatically closed and an inescapable electrical foot shock (0.1 mA; 3 s) was delivered through the grid floor. Latency to cross into the dark compartment (training latency) was automatically measured. The retention test was performed 24 hours later (day 2). Mice were placed into the light (safe) compartment, with access to the dark one (within 10 s) for a period of 300 s (cut-off time). The latency to cross into the dark compartment with all four feet was automatically measured (retention latency).
Effects of 2-(4R-phenyl-2-oxopyrrolidin-1-yl)acetamide), racemic 2-(5-methyl-2-oxo-4-phenyl-pyrrolidin-1-yl)-acetamide and 2-(5S-methyl-2-oxo-4R-phenyl-pyrrolidin-1-yl)-acetamide on retention of passive avoidance response (memory) in ICR male mice.
The compounds were administered intraperitoneally at the dose of 46 μmol/kg 60 min before the training trial (day 1). The saline control group was run concurrently with the drug-treated groups. The statistical analysis was performed by Student's t-test. Data represent mean±S.E.M *p<0.05, ^#p<0.05, ^$p<0.05 versus saline control group, 2-(4R-phenyl-2-oxopyrrolidin-1-yl)acetamide-treated group and racemic2-(5-methyl-2-oxo-4-phenyl-pyrrolidin-1-yl)-acetamide-treated group, respectively; n≧10

This is an account of results in patent publication US8791273B2, “4R,5S-enantiomer of 2-(5-methyl-2-oxo-4-phenyl-pyrrolidin-1-yl)-acetamide with nootropic activity” (JSC Grindeks, priority 2009, dated 2014).

Marks after values point to notes of the source that are not given here.

For the compound `NC(=O)CN1C[C@@H](c2ccccc2)CC1=O` [2-(4R-phenyl-2-oxopyrrolidin-1-yl)acetamide, reference compound], the “Latent time (retention latency to cross into the dark compartment)” value (“Latent time” below) in the data set with ICR male mice is listed as 94.9 ± 27.6 s. For the compound `CC1C(c2ccccc2)CC(=O)N1CC(N)=O` (racemic) [2-(5-methyl-2-oxo-4-phenyl-pyrrolidin-1-yl)-acetamide racemic, 2-(5-methyl-2-oxo-4-phenyl-pyrrolidin-1-yl)-acetamide], in the data set on ICR male mice, the “Latent time” value was 74.2 ± 19.9 s. One may read the melting point as the temperature, or range, at which the solid turns liquid. For `C[C@H]1[C@@H](c2ccccc2)CC(=O)N1CC(N)=O` [2-(5S-methyl-2-oxo-4R-phenyl-pyrrolidin-1-yl)-acetamide], the melting point was in the range of 169 to 171 °C. In addition, the “effect on memory in the passive avoidance task” value in the data set with ICR male mice (dose of 46 μmol/kg, Student's t-test) is “statistically significant effect on memory”. Also, in the data set with ICR male mice, the “Latent time” value is reported as 170.6 ± 41.9* ^#$ s.
